Tested on: Acinetobacter baumannii strains
Assay: Antibiotic susceptibility test (CLSI disk diffusion test method, read per CLSI 2016)
Assay type: cell-based
Protocol: Strain identification was performed using a kit such as AT 32 GN system (bioMérieux, Marcy l'Etoile, France). […] In Table 2 below, S, I, and R are the results obtained by evaluating susceptibility to the antibacterial agents, in which ‘S’ means susceptible, ‘I’ means intermediate, and ‘R’ means resistant.
Strain identification was performed using a kit such as ATB 32 GN system (bioMédrieux, Marcy l'Etoile, France). […] In Table 6 below, S, I, and R are the results obtained by evaluating susceptibility to the antibacterial agents, in which ‘S’ means susceptible, ‘I’ means intermediate, and ‘R’ means resistant.
Strain identification was performed using a kit such as ATB 32 GN system (bioMérieux, Marcy l'Etoile, France). […] In Table 10 below, S, I, and R are the results obtained by evaluating susceptibility to the antibacterial agents, in which ‘S’ means susceptible, T means intermediate, and ‘R’ means resistant.

NCC[C@H](O)C(=O)N[C@@H]1C[C@H](N)[C@@H](O[C@H]2O[C@H](CN)[C@@H](O)[C@H](O)[C@H]2O)[C@H](O)[C@H]1O[C@H]1O[C@H](CO)[C@@H](O)[C@H](N)[C@H]1O [Amikacin, amikacin]
R: antibiotic susceptibility class (host strain YMC14/01/C29) | antibiotic susceptibility class (host strain YMC14/01/IP122) | antibiotic susceptibility class (host strain YMC14/01/L8) | antibiotic susceptibility class (host strain YMC14/01/P31) | antibiotic susceptibility class (host strain YMC14/01/P117) | antibiotic susceptibility class (host strain YMC14/01/P224) | antibiotic susceptibility class (host strain YMC14/01/P727) | antibiotic susceptibility class (host strain YMC14/01/P728) | antibiotic susceptibility class (host strain YMC14/01/R130) | antibiotic susceptibility class (host strain YMC14/01/R160) | antibiotic susceptibility class (host strain YMC14/01/R198) | antibiotic susceptibility class (host strain YMC14/01/R270) | antibiotic susceptibility class (host strain YMC14/01/R324) | antibiotic susceptibility class (host strain YMC14/01/R443) | antibiotic susceptibility class (host strain YMC14/01/R451) | antibiotic susceptibility class (host strain YMC14/01/R560) | antibiotic susceptibility class (host strain YMC14/01/R617) | antibiotic susceptibility class (host strain YMC14/01/R671) | antibiotic susceptibility class (host strain YMC14/01/R732) | antibiotic susceptibility class (host strain YMC14/01/R767) | antibiotic susceptibility class (host strain YMC14/01/R904) | antibiotic susceptibility class (host strain YMC14/01/R905) | antibiotic susceptibility class (host strain YMC14/01/R941) | antibiotic susceptibility class (host strain YMC14/01/R958) | antibiotic susceptibility class (host strain YMC14/01/R1006) | antibiotic susceptibility class (host strain YMC14/01/R1199) | antibiotic susceptibility class (host strain YMC14/01/R1659) | antibiotic susceptibility class (host strain YMC14/01/R1722) | antibiotic susceptibility class (host strain YMC14/01/R1752) | antibiotic susceptibility class (host strain YMC14/01/R2429) | antibiotic susceptibility class (host strain YMC14/01/R2572) | antibiotic susceptibility class (host strain YMC14/01/R2855) | antibiotic susceptibility class (host strain YMC14/01/R2945) | antibiotic susceptibility class (host strain YMC14/01/R3007) | antibiotic susceptibility class (host strain YMC14/01/R3129) | antibiotic susceptibility class (host strain YMC14/01/R3317) | antibiotic susceptibility class (host strain YMC14/01/R3474) | antibiotic susceptibility class (host strain YMC14/01/R3574) | antibiotic susceptibility class (host strain YMC14/01/U313) | antibiotic susceptibility class (host strain YMC14/01/U318) | antibiotic susceptibility class (host strain YMC14/02/L18) | antibiotic susceptibility class (host strain YMC14/02/P47) | antibiotic susceptibility class (host strain YMC14/02/R2417) | antibiotic susceptibility class (host strain YMC14/02/R2668) | antibiotic susceptibility class (host strain YMC14/02/R2758) | antibiotic susceptibility class (host strain YMC14/02/R2781) | antibiotic susceptibility class (host strain YMC14/02/R3106) | antibiotic susceptibility class (host strain YMC14/02/R3419) | antibiotic susceptibility class (host strain YMC14/03/R217) | antibiotic susceptibility class (host strain YMC14/03/R380) | antibiotic susceptibility class (host strain YMC14/03/R2144) | antibiotic susceptibility class (host strain YMC14/03/U4616) | antibiotic susceptibility S/I/R (host strain YMC14/06/R2359) | susceptibility category (S/I/R) (host strain YMC14/06/R2359) | antibiotic susceptibility S/I/R (host strain YMC14/08/R1169) | susceptibility category (S/I/R) (host strain YMC14/08/R1169) | antibiotic susceptibility S/I/R (host strain YMC14/08/T90) | susceptibility category (S/I/R) (host strain YMC14/08/T90) | antibiotic susceptibility S/I/R (host strain YMC15/02/R436) | susceptibility category (S/I/R) (host strain YMC15/02/R436) | antibiotic susceptibility S/I/R (host strain YMC15/02/T28) | susceptibility category (S/I/R) (host strain YMC15/02/T28) | antibiotic susceptibility S/I/R (host strain YMC15/03/R1604) | susceptibility category (S/I/R) (host strain YMC15/03/R1604) | antibiotic susceptibility S/I/R (host strain YMC15/09/R1869) | susceptibility category (S/I/R) (host strain YMC15/09/R1869) | antibiotic susceptibility S/I/R (host strain YMC16/01/P11) | susceptibility category (S/I/R) (host strain YMC16/01/P11) | antibiotic susceptibility S/I/R (host strain YMC16/01/R123) | susceptibility category (S/I/R) (host strain YMC16/01/R123)
S: antibiotic susceptibility class (host strain YMC14/01/R257) | antibiotic susceptibility class (host strain YMC14/01/R921) | antibiotic susceptibility class (host strain YMC14/02/R1860) | antibiotic susceptibility class (host strain YMC14/02/R2599) | antibiotic susceptibility class (host strain YMC14/02/U1607) | antibiotic susceptibility class (host strain YMC14/03/L9) | antibiotic susceptibility class (host strain YMC14/03/P471) | antibiotic susceptibility class (host strain YMC14/03/R122) | antibiotic susceptibility class (host strain YMC14/03/R618) | antibiotic susceptibility class (host strain YMC14/04/R1078) | antibiotic susceptibility class (host strain YMC14/04/R1080)
